The values that follow come from patent publication US20250171423A1, “PHARMACEUTICAL COMPOUNDS FOR THE TREATMENT OF COMPLEMENT MEDIATED DISORDERS” (Achillion Pharmaceuticals, Inc., priority 2020, published 2025).

Each structure is given as a SMILES string.

The experiment deals with T1, Human complement C1s enzyme (Homo sapiens, UniProt P09871).
T1 construct: purified from human serum, Complement Technology, Inc; purchased Complement Technology, Inc; host or cells: human serum
T1 sequence (P09871 438-688 limits assumed): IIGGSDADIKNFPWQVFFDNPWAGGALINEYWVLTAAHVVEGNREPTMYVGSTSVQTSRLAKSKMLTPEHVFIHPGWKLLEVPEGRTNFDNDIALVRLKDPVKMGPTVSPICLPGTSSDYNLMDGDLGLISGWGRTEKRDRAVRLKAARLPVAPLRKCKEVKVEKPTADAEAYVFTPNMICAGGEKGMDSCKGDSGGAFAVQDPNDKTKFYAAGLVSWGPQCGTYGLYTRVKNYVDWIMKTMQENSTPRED
T1 sequence (P09871 16-437 partner limits assumed): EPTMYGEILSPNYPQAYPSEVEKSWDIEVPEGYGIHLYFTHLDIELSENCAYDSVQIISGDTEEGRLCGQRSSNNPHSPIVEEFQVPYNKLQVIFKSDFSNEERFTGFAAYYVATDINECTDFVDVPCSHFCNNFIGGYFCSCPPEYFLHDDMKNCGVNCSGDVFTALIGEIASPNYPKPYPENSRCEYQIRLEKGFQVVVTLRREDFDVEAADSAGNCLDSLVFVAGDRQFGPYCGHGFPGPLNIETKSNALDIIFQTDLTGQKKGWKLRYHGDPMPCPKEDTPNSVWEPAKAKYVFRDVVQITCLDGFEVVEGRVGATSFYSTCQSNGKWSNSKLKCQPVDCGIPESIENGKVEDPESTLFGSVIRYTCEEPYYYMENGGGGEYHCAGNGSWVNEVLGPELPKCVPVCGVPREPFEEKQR
Briefly: Human C1s Enzyme Assay. As to conditions: human C1s 1.16 nM, 5 min preincubation, substrate Z-L-Lys-SBzl 100 μM, A405; read-out: C1s Protease Activity. The class given is biochemical. Put shortly:
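IC50 values were fitted by nonlinear regression to rates measured as A405 every 30 s for 30 min. The thioester substrate Z-L-Lys-SBzl and Ellman's reagent were each at 100 μM. Serum-derived C1s at 1.16 nM final had 5 min of room-temperature preincubation with compound (pH 7.5 Tris buffer, 1 M NaCl).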
For the compound `N=C(N)c1csc(CNC(=O)[C@@H]2C[C@@H](c3ccc(F)cc3)CN2C(=O)CNC(=O)CCCOc2ccccc2)c1` [Compound 164, (2S,4S)-N-((4-carbamimidoylthiophen-2-yl)methyl)-4-(4-fluorophenyl)-1-((4-phenoxybutanoyl)glycyl)pyrrolidine-2-carboxamide], the IC50 is < 100 nM.
On to `CC(C)C[C@H](NC(=O)[C@@H]1CC2(CN1C(=O)CNC(=O)CCCOc1ccccc1)OCCO2)c1cc(C(=N)N)cs1` [Compound 221, (S)-N-((S)-1-(4-carbamimidoylthiophen-2-yl)-3-methylbutyl)-7-((4-phenoxybutanoyl)glycyl)-1,4-dioxa-7-azaspiro[4.4]nonane-8-carboxamide], for which the IC50 is > 1000 nM.
Take `C[C@@]12C[C@@H]1N(C(=O)CNC(=O)c1ccc(Oc3ccc(C(F)(F)F)cc3)cc1)[C@H](C(=O)NCc1cc(C(=N)N)cs1)C2` [Compound 92, (1S,3S,5S)-N-((4-carbamimidoylthiophen-2-yl)methyl)-5-methyl-2-((4-(4-(trifluoro-methyl)phenoxy)benzoyl)glycyl)-2-azabicyclo[3.1.0]hexane-3-carboxamide]: the IC50 is 100 to 1000 nM.
The figure for `C[C@@]12C[C@@H]1N(C(=O)CNC(=O)c1ccc(Oc3ccccc3)cc1)[C@H](C(=O)NCc1cc(C3=NCCN3)cs1)C2` [Compound 37, (1S,3S,5S)-N-((4-(4,5-dihydro-1H-imidazol-2-yl)thiophen-2-yl)methyl)-5-methyl-2-((4-phenoxybenzoyl)glycyl)-2-azabicyclo[3.1.0]hexane-3-carboxamide] is > 1000 nM; for `N=C(N)c1csc(CNC(=O)[C@@H]2C[C@H](C3CCCC3)CN2C(=O)CNC(=O)c2ccc(Oc3ccccc3)cc2)c1` [Compound 260, (2S,4R)-N-((4-carbamimidoylthiophen-2-yl)methyl)-4-cyclopentyl-1-((4-phenoxybenzoyl)glycyl) pyrrolidine-2-carboxamide] it is < 100 nM; for `N=C(N)c1csc(CNC(=O)[C@@H]2C[C@H](c3ccccc3)CN2C(=O)CNC(=O)CCCOc2ccccc2)c1` [Compound 157, (2S,4R)-N-((4-carbamimidoylthiophen-2-yl)methyl)-1-((4-phenoxybutanoyl)glycyl)-4-phenylpyrrolidine-2-carboxamide] it is < 100 nM.
The figure for `C[C@@]12C[C@@H]1N(C(=O)CNC(=O)COCCOCCNC(=O)COCCOCCNC(=O)CC[C@H](NC(=O)CCCCCCCCCCCCCCCCC(=O)O)C(=O)O)[C@H](C(=O)NCc1cc(C(=N)N)cs1)C2` [Compound 100, 17-{[(1S)-3-{[2-(2-{[(2-{2-[({2-[(1S,3S,5S)-3-{[(4-carbamimidoylthiophen-2-yl)methyl]-carbamoyl}-5-methyl-2-azabicyclo[3.1.0]hexan-2-yl]-2-oxoethyl}carbamoyl)methoxy]ethoxy}ethyl)-carbamoyl]methoxy}ethoxy)ethyl]carbamoyl}-1-carboxypropyl]-carbamoyl}heptadecanoic acid] is > 1000 nM.
Take `N=C(N)c1csc([C@@H](NC(=O)[C@@H]2CC3(CN2C(=O)CNC(=O)CCCOc2ccccc2)OCCO3)C2CCCC2)c1` [Compound 179, (S)-N-((S)-(4-carbamimidoylthiophen-2-yl)(cyclopentyl)methyl)-7-((4-phenoxybutanoyl)glycyl)-1,4-dioxa-7-azaspiro[4.4]nonane-8-carboxamide]: the IC50 was > 1000 nM.
The figure for `N=C(N)c1csc(CNC(=O)[C@@H]2C[C@@H](N3CCCC3)CN2C(=O)CNC(=O)c2ccc(Oc3ccccc3)cc2)c1` [Compound 48, (3′R,5'S)-N-((4-carbamimidoylthiophen-2-yl)methyl)-1′-((4-phenoxybenzoyl)glycyl)-[1,3′-bipyrrolidine]-5′-carboxamide] is < 100 nM; for `C[C@@]12C[C@@H]1N(C(=O)CNC(=O)c1ccc(Oc3cccnc3)cc1)[C@H](C(=O)NCc1cc(C(=N)N)cs1)C2` [Compound 94, (1S,3S,5S)-N-[(4-carbamimidoylthiophen-2-yl)methyl]-5-methyl-2-(2-{[4-(pyridin-3-yloxy)phenyl]formamido}acetyl)-2-azabicyclo[3.1.0]hexane-3-carboxamide] it is < 100 nM.
Take `C[C@@H](NC(=O)[C@@H]1C[C@@H](OC(F)F)CN1C(=O)CNC(=O)CCCOc1ccc(F)cc1)c1cc(C(=N)N)cs1` [Compound 108, (2S,4R)-N-((R)-1-(4-carbamimidoylthiophen-2-yl)ethyl)-4-(difluoromethoxy)-1-((4-(4-fluorophenoxy)butanoyl)glycyl)pyrrolidine-2-carboxamide]: the IC50 was < 100 nM.
The figure for `Cc1ccccc1[C@H]1C[C@@H](C(=O)NCc2cc(C(=N)N)cs2)N(C(=O)CNC(=O)CCCOc2ccccc2)C1` [Compound 150] is < 100 nM; for `C[C@@H](NC(=O)[C@@H]1CC2(CN1C(=O)CNC(=O)CCCOc1ccccc1)OCCO2)c1ccc(C(=N)N)s1` [Compound 133, (S)-N-((R)-1-(5-carbamimidoylthiophen-2-yl)ethyl)-7-((4-phenoxybutanoyl)glycyl)-1,4-dioxa-7-azaspiro[4.4]nonane-8-carboxamide] it is < 100 nM.
Turning to `N=C(N)c1csc(CNC(=O)[C@@H]2C[C@@H](Oc3ccccc3)CN2C(=O)CNC(=O)CCCOc2ccccc2)c1` [Compound 69, (2S,4R)-N-((4-carbamimidoylthiophen-2-yl)methyl)-4-phenoxy-1-((4-phenoxy-butanoyl)glycyl)pyrrolidine-2-carboxamide], the IC50 was < 100 nM.
Then `C[C@@]12C[C@@H]1N(C(=O)CNC(=O)c1ccc(C3(c4ccccc4)COC3)cc1)[C@H](C(=O)NCc1cc(C(=N)N)cs1)C2` [Compound 168, (1S,3S,5S)-N-((4-carbamimidoylthiophen-2-yl)methyl)-5-methyl-2-((4-(3-phenyloxetan-3-yl)benzoyl)glycyl)-2-azabicyclo[3.1.0]hexane-3-carboxamide], with < 100 nM; and `CC(=O)O/N=C(\N)c1csc(CNC(=O)[C@@H]2C[C@]3(C)C[C@@H]3N2C(=O)CN(C[C@H](O)[C@H](O)[C@@H](O)[C@H](C)O)C(=O)OC(C)(C)C)c1` [Compound 25, tert-butyl (2-((1S,3S,5S)-3-(((4-(N-acetoxycarbamimidoyl)thiophen-2-yl)methyl)-carbamoyl)-5-methyl-2-azabicyclo[3.1.0]hexan-2-yl)-2-oxoethyl)((2S,3S,4S,5S)-2,3,4,5-tetrahydroxyhexyl)carbamate], with > 1000 nM; and `N=C(N)c1csc(CNC(=O)[C@@H]2C[C@@H](C(F)(F)F)CN2C(=O)CNC(=O)CCCOc2ccccc2)c1` [Compound 60, (2S,4R)-N-((4-carbamimidoylthiophen-2-yl)methyl)-1-((4-phenoxybutanoyl)glycyl)-4-(trifluoromethyl)pyrrolidine-2-carboxamide], with < 100 nM.
The figure for `C[C@@H](NC(=O)[C@@H]1C[C@@H](Oc2ccccc2)CN1C(=O)CNC(=O)c1ccc(Oc2ccccc2)cc1)c1cc(C(=N)N)cs1` [Compound 181, (2S,4R)-N-((R)-1-(4-carbamimidoylthiophen-2-yl)ethyl)-4-phenoxy-1-((4-phenoxybenzoyl)glycyl)pyrrolidine-2-carboxamide] is < 100 nM; for `N=C(N)c1csc(CNC(=O)[C@@H]2C[C@]3(CO)C[C@@H]3N2C(=O)CNC(=O)CCCOc2ccccc2)c1` [Compound 84, (1S,3S,5R)-N-((4-carbamimidoylthiophen-2-yl)methyl)-5-(hydroxymethyl)-2-((4-phenoxybutanoyl)glycyl)-2-azabicyclo[3.1.0]hexane-3-carboxamide] it is 100 to 1000 nM; for `N=C(N)c1csc([C@H](NC(=O)[C@@H]2C[C@@H](OC(F)F)CN2C(=O)CNC(=O)c2ccc(Oc3ccccc3)cc2)c2ccccc2)c1` [Compound 200, (2S,4R)-N-((R)-(4-carbamimidoylthiophen-2-yl)(phenyl)methyl)-4-(difluoromethoxy)-1-((4-phenoxybenzoyl)glycyl)pyrrolidine-2-carboxamide] it is > 1000 nM.
As to `N=C(N)c1csc(CNC(=O)[C@@H]2CC3(CCCC3)CN2C(=O)CNC(=O)CCCOc2ccccc2)c1` [Compound 82, (S)-N-((4-carbamimidoylthiophen-2-yl)methyl)-2-((4-phenoxybutanoyl)glycyl)-2-azaspiro[4.4]nonane-3-carboxamide], the IC50 lay in the range of 100 to 1000 nM.
`C[C@@H](NC(=O)[C@@H]1C[C@]2(C)C[C@@H]2N1C(=O)CNC(=O)[C@H](CCOc1ccccc1)NC(=O)CCC(=O)O)c1cc(C(=N)N)cs1` [Compound 184, 4-(((S)-1-((2-((1S,3S,5S)-3-(((R)-1-(4-carbamimidoylthiophen-2-yl)ethyl)carbamoyl)-5-methyl-2-azabicyclo[3.1.0]hexan-2-yl)-2-oxoethyl)amino)-1-oxo-4-phenoxybutan-2-yl)amino)-4-oxobutanoic acid]: the IC50 is < 100 nM.
